# Assay results: US8389794B2, “Transgenic pig as a model of Alzheimer's disease” (Aarhus Universitet, priority 2007, dated 2013)
# Where a SMILES comes first, the peptide text is derived from it. [ ]: non-standard residue; d: D form. Nle = CCCC[C@H](N)C(=O)O
# Key:
# APP695 = assay: Western blot (antibody 6E10) of fibroblasts grown with protease inhibitors; assay type: cell-based, Göttingen minipig
# Experimental: A Western blot using a commercial anti-APP antibody (6E10), […], was performed according to the manufacturer's recommendations. The Western blot was performed on extracts from fibroblast cells of a transgenic pig (lanes 1 and 2) and on extracts from fibroblast cells of a wt pig (lanes 3 and 4), see FIG. 10. In lane 1 the fibroblasts have been treated with the protease inhibitor ALLN, whereas the fibroblasts of lane 2 have not received treatment. […] In contrast, the lower molecular weight products are not present in similar amounts as in lane 2. Lanes 3 and 4 contain extracts of fibroblasts from wt pigs and no effect of ALLN treatment is evident in comparison to the extracts of transgenic pigs.
# a) Non-transgenic donor fibroblasts (74114 cells) and fibroblasts from transgenic minipiglet No. 47 were grown to 80% confluence in a 75 cm2 flask. The cells from each flask were resuspended in 24 ml medium and transferred to a 6-well plate (TPP, Schwitzerland) with 2.5 ml of the cell suspension in each well. Medium was changed the following day with 2 ml fresh medium containing the chemical at the indicated concentration were added to the wells of both plates: well No. 1, 5 μM Lactacystin; well No. 2, 20 μM Leupeptin; well No. 3, 20 μl DMSO; well No. 4, 20 μM ALLN; well No. 5, 2.5 mM NH4Cl. After 6 hrs incubation the cells from each well were harvested and transferred to an 1.5 ml Eppendorf tube. 30 μl ddH20, 2 μl reducing agent and 8 μl loading buffer (Fermentas) were added, the tubes were placed in boiling water for 5 min. and spun at full speed for 1 min. in an Eppendorf centrifuge. 15 μl of each sample were loaded on a 4-15% polyacrylamid gel (BioRad), run at 45 mAmp for 90 min. Transfer to PVDF membrane (GE Healthcare) was done at 75 volt for 30 min., and the membrane was stained with anti-human APP monoclonal antibody 6E10 (SIGNET) at dilution 1:1000, and as secondary antibody polyclonal goat anti-mouse immunoglobulines/HRP (Dako Cytomation) at dilution 1:2000. b) Extraction of protein from brain tissue was done with 100-200 mg flash frozen cortical tissue homogenized in a tissue-grinder with 3 ml lysis buffer (Tris-HCl 50 mM, EDTA 10 mM, SDS 1%, Triton X-100 0.5%, ⅓ Protease Inhibitor Cocktail Tablet (Roche), pH 8.0). The solution was transferred to an Eppendorf tube (1 ml), centrifuged at 12,000 rpm for 2 min at 4° C. and supernatant transferred to a new tube. After vortexing the tube was frozen in dry ice for 3 min, thawed at 37° C. for 3 min, and this freeze/thaw step was repeated 3 times. Finally, the solution was centrifuged at 14,000 rpm (4° C.) for 10 min, the pellet discarded and the protein concentration of the supernatant determined. 8 μg protein extract was loaded in each lane of the polyacrylamid gel. Western blotting was done as described above. […]
# β-secretase = biological target: T1, β-secretase (Mus musculus, UniProt P56818); details: oral administration, APP transgenic mice; cited from earlier work
# T1 construct: host or cells: brain of APP transgenic mice (in vivo, oral dosing)
# PDAPP transgenic mouse = details: subcutaneous immunization, 100 ug in complete Freund adjuvant; cited from earlier work
# T1 sequence (P56818 46-501): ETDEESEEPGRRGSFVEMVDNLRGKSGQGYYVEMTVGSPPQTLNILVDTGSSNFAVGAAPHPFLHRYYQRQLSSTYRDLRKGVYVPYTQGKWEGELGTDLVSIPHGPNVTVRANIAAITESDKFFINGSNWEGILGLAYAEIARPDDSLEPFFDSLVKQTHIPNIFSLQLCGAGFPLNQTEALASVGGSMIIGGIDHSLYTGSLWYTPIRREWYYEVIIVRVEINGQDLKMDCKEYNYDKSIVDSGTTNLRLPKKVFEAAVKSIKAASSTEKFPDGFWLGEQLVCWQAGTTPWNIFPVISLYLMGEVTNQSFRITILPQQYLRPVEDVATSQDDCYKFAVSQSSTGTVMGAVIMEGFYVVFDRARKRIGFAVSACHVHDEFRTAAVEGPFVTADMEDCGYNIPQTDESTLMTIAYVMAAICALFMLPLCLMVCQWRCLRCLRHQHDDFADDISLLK
compound,measurement,setting,value
CCCC[C@@H](C=O)NC(=O)[C@H](CC(C)C)NC(=O)[C@H](CC(C)C)NC(C)=O [ALLN] (Ac-Leu-Leu-[Nle]-aldehyde),"difference in intensity of the APP695 bands, transgenic vs non-transgenic fibroblasts","APP695; 20 μM ALLN in medium, fibroblasts of transgenic piglet No. 47 vs donor cells 74114",becomes more pronounced
same,bands of lower molecular weight than mutated APP,APP695; ALLN treated fibroblasts of transgenic pig vs untreated,increased in intensity
CCNc1cc(C(=O)N[C@@H](Cc2ccccc2)[C@H](O)CNCc2cccc(C(F)(F)F)c2)c(F)c(N2CCCCS2(=O)=O)c1 [GSK188909],brain Abeta,β-secretase,significant lowering
Cl.N [ammonium chloride],"difference in intensity of the APP695 bands, transgenic vs non-transgenic fibroblasts","APP695; ammonium chloride in medium (2.5 mM NH4Cl per method), data not shown",no such effect
CC(=O)N[C@@H](CC(C)C)C(=O)N[C@@H](CC(C)C)C(=O)N[C@H](C=O)CCCNC(=N)N [leupeptin],"difference in intensity of the APP695 bands, transgenic vs non-transgenic fibroblasts","APP695; leupeptin in medium (20 μM per method), data not shown",no such effect
Abeta 1-42 antigen: Abeta 1-42 antigen in complete Freund adjuvant for active immunization,accumulation of plaques in the brain,PDAPP transgenic mouse,reduces the accumulation of plaques
